According to PubChem BioAssay (NCI):
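Cultured in 96-well plates, cells were exposed to test compound for 48 hours across five concentrations. GI50 marks 50% less growth. TGI: concentration producing complete growth inhibition.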

How the values were obtained:
Assay in all cases: inhibition of tumour cell growth, NCI panel, 48 h
MCF7 breast = test system: MCF7 breast
A549 NSCLC = test system: A549 NSCLC
IGROV1 ovarian = test system: IGROV1 ovarian
OVCAR-5 ovarian = test system: OVCAR-5 ovarian
OVCAR-8 ovarian = test system: OVCAR-8 ovarian
SF-268 CNS = test system: SF-268 CNS
TK-10 renal = test system: TK-10 renal
MOLT-4 leukemia = test system: MOLT-4 leukemia
CCRF-CEM leukemia = test system: CCRF-CEM leukemia
SF-295 CNS = test system: SF-295 CNS

Structure (SMILES) | GI50 (MCF7 breast) | TGI (MCF7 breast) | GI50 (A549 NSCLC) | TGI (A549 NSCLC) | GI50 (IGROV1 ovarian) | TGI (IGROV1 ovarian) | GI50 (OVCAR-5 ovarian) | TGI (OVCAR-5 ovarian) | GI50 (OVCAR-8 ovarian) | TGI (OVCAR-8 ovarian) | GI50 (SF-268 CNS) | TGI (SF-268 CNS) | GI50 (TK-10 renal) | TGI (TK-10 renal) | GI50 (MOLT-4 leukemia) | TGI (MOLT-4 leukemia) | GI50 (CCRF-CEM leukemia) | TGI (CCRF-CEM leukemia) | GI50 (SF-295 CNS) | TGI (SF-295 CNS)
Cc1n(Cc2ccc3ccccc3c2)cc[n+]1Cc1ccc2ccccc2c1 | 1.1 µM | 3.33 µM | 3.81 µM | 21.3 µM | 0.797 µM | 2.87 µM | 1.5 µM | 5.81 µM | 1.21 µM | 10.3 µM | 1.14 µM | 8.69 µM | 1.77 µM | 5.1 µM | 1.76 µM | 5.61 µM | 1.87 µM | 7.19 µM | 1.83 µM | 7.21 µM
COc1cc(/C=C2\C(=O)Nc3ccc(F)cc32)cc(OC)c1OC | 4.73 µM | > 100 µM | 51.8 µM | > 100 µM | 8.44 µM | > 100 µM | > 100 µM | > 100 µM | 64.2 µM | > 100 µM | 28.3 µM | > 100 µM | 68.5 µM | > 100 µM | 9.26 µM | > 100 µM | 23.3 µM | > 100 µM | > 100 µM | > 100 µM
CCN(CC)CC(C)(C)C(=O)/C=C/c1ccc(Cl)c(Cl)c1 | 0.959 µM | 2.8 µM | 2.38 µM | 4.88 µM | 2.01 µM | 4.95 µM | 1.65 µM | 3.49 µM | 1.88 µM | 3.91 µM | 1.56 µM | 3.22 µM | 1.67 µM | 3.04 µM | 2.37 µM | 8.11 µM | 1.14 µM | 4.22 µM | 1.74 µM | 3.22 µM
Cc1c(C2Nc3ccccc3C2C)[nH]c2ccccc12 (centres undefined) | 4.26 µM | 27.8 µM | 1.67 µM | 24.1 µM | 2.96 µM | 27.3 µM | 14.8 µM | 30.9 µM | 9.1 µM | 29.2 µM | 12.8 µM | 45.6 µM | 17.4 µM | 34.2 µM | 11.2 µM | 49.5 µM | 0.801 µM | 46.6 µM | 11.5 µM | 28.1 µM
CCN1C(=O)N(CC)C2C1NC(=S)N2/N=C/C=C/c1cccs1 (centres undefined) | 0.26 µM | > 100 µM | 0.508 µM | > 100 µM | 0.569 µM | > 100 µM | 0.544 µM | > 100 µM | 0.548 µM | > 100 µM | 1.47 µM | > 100 µM | > 47.5 µM | > 100 µM | 0.62 µM | > 100 µM | 0.396 µM | > 100 µM | 0.258 µM | > 100 µM
COc1ccc(-n2cc(-c3ccc(Cl)c(Cl)c3)nc2SCc2cccc(C#N)c2)cc1 | 34.5 µM | > 100 µM | 93.8 µM | > 100 µM | 4.77 µM | 28.3 µM | 94.1 µM | > 100 µM | 18.6 µM | > 100 µM | 37 µM | > 100 µM | 44.6 µM | > 100 µM | 19.4 µM | > 100 µM | > 100 µM | > 100 µM | 22.2 µM | > 100 µM
Cc1ccc(N(CSc2ccc(Cl)cc2)CSc2ccc(Cl)cc2)cc1 | 2.25 µM | 12.1 µM | 0.448 µM | > 100 µM | 0.481 µM | 5.87 µM | 1.74 µM | 13 µM | 1.55 µM | > 100 µM | 0.909 µM | 12.4 µM | 4.88 µM | > 100 µM | 0.381 µM | 2.63 µM | 0.246 µM | 2.5 µM | 0.375 µM | 2.6 µM
O=c1[nH]c2cc(Cl)ccc2n1C1CCN(CCCC(c2ccc(F)cc2)c2ccc(F)cc2)CC1 | 1.35 µM | 2.84 µM | 1.65 µM | 3.39 µM | 1.98 µM | 3.87 µM | 1.74 µM | 3.43 µM | 1.69 µM | 3.56 µM | 1.56 µM | 2.98 µM | 1.94 µM | 3.55 µM | 2.43 µM | 7.15 µM | 2.31 µM | 6.98 µM | – | –
O=C(N/N=C\c1cc(Br)ccc1O)c1ccncc1 | 1.55 µM | 7.25 µM | 4.27 µM | > 100 µM | 3.51 µM | > 100 µM | 3.76 µM | > 100 µM | 1.38 µM | > 100 µM | 1.4 µM | > 100 µM | – | – | 0.551 µM | 23.5 µM | 0.423 µM | > 100 µM | 3.47 µM | > 100 µM
Cc1cn2c(/C=C3/C(=O)Nc4ccccc43)c(-c3ccc(Cl)cc3)nc2s1 | 6.9 µM | 19.7 µM | 7.52 µM | 16 µM | 10.2 µM | 19.9 µM | – | – | 10.2 µM | 23.6 µM | 7.41 µM | 24.4 µM | 8.99 µM | 17.3 µM | 16.9 µM | 47.4 µM | 17.6 µM | > 50 µM | 9.22 µM | 17.4 µM
